Laboratory results: patent US9006210B2, “Compositions and methods for treating corneal inflammation” (Case Western Reserve University, priority 2008, dated 2015)
Entries after “also recorded” stand apart in the source; their conditions may differ.

Legend:
TLR2 [1] = biological target: T1, TLR2 (Homo sapiens, UniProt O60603); assay: Pam3Cys-induced IL-8 production by neutrophils (HL-60); assay type: cell-based; conditions: HL-60 neutrophils; 500 ng/ml Pam3Cys; 3 h
T1 construct: endogenous in cells; host or cells: HCE-T human corneal epithelial cell line (ATCC)
T1 sequence (O60603 21-784): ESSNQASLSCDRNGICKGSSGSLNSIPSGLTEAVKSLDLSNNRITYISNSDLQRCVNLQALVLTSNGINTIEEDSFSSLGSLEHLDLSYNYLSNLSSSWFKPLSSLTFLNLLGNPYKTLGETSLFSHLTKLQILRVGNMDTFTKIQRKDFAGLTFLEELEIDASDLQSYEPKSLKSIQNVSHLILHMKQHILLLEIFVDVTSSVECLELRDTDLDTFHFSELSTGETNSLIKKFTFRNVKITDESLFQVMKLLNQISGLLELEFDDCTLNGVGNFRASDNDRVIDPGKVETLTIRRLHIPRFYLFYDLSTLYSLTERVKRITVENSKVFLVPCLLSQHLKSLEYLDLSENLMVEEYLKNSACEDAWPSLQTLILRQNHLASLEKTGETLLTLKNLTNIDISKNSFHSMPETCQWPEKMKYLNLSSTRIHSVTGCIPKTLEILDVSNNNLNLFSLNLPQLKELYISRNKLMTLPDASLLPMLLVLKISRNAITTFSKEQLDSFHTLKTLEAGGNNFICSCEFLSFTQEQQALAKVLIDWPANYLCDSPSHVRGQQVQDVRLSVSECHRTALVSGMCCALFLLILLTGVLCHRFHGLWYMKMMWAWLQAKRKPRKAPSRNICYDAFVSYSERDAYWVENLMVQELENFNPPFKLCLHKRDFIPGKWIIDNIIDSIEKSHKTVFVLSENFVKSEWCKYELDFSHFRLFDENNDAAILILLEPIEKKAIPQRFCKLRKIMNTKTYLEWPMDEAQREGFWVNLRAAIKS
Method: (§1) The U937 macrophage-cell line was cultured in RPMI medium (GIBCO) with 10% FBS, and 5×10^4 cells/well were added to 96-well plates. The human neutrophil-like cell line (HL-60) was maintained in RPMI with 10% FBS, and incubated five days in 1.2% DMSO to generate the neutrophil phenotype.
(§2) All cells were incubated with eritoran or placebo, followed by stimulation with LPS or Pam3CysK4 at optimal concentrations for each cells line (noted in results). After 3 h, cell-free supernatants were collected, and CXCL8/IL-8 was measured by ELISA (R&D Systems).
(§3) Cell lines derived from human corneal epithelial cells (HCE-T), macrophages (U937) and neutrophils (HL-60) were stimulated with LPS or Pam3Cys in the presence of eritoran tetrasodium or placebo. After 3 h (U937 and HL-60 cells) or 24 h (HCE-T cell), IL-8 levels in culture supernatants were quantified by ELISA. […] FIGS. 16 and 17 show macrophages stimulated with 10 ng/ml LPS or 500 ng/ml Pam3Cys in the presence of Eritoran or placebo. FIGS. 18 and 19 show neutrophils stimulated with 1 ng/ml LPS or 500 ng/ml Pam3Cys and Eritoran or placebo. LPS concentrations were based on preliminary data showing optimal IL-8 production. […] Graphs are mean+/−SEM of three wells per sample. Experiments were repeated three times with similar results.

TLR4/MD-2 = biological target: T2, TLR4/MD-2 (Mus musculus, UniProt Q9JHF9+Q9QUK6); set-up: species or system C57BL/6 mice; conditions: in vivo
T2 construct: from tissue; host or cells: cornea of living C57BL/6 mice
T2 sequence (Q9QUK6 26-835): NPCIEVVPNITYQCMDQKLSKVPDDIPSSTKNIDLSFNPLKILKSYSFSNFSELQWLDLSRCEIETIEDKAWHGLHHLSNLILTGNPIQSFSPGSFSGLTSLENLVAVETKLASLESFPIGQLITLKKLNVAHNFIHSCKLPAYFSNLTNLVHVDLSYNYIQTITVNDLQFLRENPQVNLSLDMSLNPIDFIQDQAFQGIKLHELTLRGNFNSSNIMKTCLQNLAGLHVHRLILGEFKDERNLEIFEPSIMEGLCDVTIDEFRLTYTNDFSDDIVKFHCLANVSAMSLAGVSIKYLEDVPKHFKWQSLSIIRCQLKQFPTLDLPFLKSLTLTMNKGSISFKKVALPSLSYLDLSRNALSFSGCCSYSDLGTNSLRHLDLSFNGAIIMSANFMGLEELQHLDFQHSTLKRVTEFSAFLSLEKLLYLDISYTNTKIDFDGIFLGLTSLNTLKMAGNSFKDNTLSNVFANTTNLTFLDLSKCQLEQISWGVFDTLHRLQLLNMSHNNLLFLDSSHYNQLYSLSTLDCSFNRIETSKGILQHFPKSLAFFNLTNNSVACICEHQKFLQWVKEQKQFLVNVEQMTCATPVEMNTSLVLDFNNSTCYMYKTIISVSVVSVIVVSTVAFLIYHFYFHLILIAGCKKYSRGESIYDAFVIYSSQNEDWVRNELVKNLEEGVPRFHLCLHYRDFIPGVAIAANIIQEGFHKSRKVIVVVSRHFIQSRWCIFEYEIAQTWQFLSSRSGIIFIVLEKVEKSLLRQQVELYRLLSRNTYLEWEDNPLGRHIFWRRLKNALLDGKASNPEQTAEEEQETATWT
T2 sequence (Q9JHF9 19-160): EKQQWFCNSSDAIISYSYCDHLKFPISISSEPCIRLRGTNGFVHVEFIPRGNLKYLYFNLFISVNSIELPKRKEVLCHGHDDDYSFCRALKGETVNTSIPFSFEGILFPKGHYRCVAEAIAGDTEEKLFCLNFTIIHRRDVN

TLR4 [2] = biological target: T3, TLR4 (Homo sapiens, UniProt O00206+Q9Y6Y9); assay: LPS-induced IL-8 production by human corneal epithelial cells (HCE-T); assay type: cell-based; set-up: endogenous in cells; host or cells: HL-60 (five days in 1.2% DMSO); conditions: for LPS-induced IL-8 production: HCE-T cells, 900 ng/ml LPS with 0.2 μg/ml MD-2, 24 h, ELISA
T3 sequence (O00206 24-839): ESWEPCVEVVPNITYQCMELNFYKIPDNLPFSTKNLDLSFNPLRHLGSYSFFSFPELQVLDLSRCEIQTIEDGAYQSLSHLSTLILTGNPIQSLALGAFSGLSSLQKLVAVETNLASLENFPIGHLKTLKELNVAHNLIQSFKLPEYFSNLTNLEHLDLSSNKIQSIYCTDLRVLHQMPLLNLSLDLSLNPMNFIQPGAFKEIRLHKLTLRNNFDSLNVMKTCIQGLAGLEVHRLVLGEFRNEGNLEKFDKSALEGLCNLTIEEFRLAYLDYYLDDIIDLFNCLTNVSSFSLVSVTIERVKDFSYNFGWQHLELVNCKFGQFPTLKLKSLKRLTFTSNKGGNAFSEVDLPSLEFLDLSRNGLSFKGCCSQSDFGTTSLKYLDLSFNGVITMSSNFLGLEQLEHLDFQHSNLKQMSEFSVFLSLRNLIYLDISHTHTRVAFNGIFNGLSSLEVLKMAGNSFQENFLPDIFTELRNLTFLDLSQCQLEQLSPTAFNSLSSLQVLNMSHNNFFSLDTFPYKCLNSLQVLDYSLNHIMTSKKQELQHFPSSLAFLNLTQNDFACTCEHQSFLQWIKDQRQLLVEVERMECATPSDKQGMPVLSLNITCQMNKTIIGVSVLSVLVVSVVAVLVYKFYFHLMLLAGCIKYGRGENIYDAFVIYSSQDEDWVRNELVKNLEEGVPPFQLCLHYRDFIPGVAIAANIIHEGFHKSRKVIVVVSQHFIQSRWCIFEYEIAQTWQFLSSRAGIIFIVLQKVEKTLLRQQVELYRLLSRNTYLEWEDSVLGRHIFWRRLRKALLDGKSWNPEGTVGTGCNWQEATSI
T3 sequence (Q9Y6Y9 19-160): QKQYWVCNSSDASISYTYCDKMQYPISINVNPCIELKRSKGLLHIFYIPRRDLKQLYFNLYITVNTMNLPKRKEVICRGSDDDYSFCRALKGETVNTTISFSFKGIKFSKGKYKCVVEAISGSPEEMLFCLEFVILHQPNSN
Method: (§4) The SV-40 transfected human corneal epithelial cell line (HCE-T) was obtained from ATCC. Before stimulation, HCE cells were plated into 48 well plates and underwent epidermal growth factor starvation overnight. As HCE cells require exogenous MD-2 to respond to LPS, cells were incubated 1 h with 200 ng/ml recombinant human MD-2 (R&D Systems, Minneapolis, Minn.) prior to stimulation with ultrapure LPS (TLR4-specific, Escherichia coli K12, Invivogen; San Diego, Calif.). HCE cells were also incubated with Pam3CysK4 (EMC Microcollections, Germany) in the absence of MD-2.
as §2, §3

TLR2 [3] = biological target: T4, TLR2 (Mus musculus, UniProt Q9QUN7); assay: Pam3Cys-induced contact lens corneal inflammation (neutrophil infiltrate, reflectivity); assay type: in vivo, C57BL/6 mice
T4 construct: Corneas of C57BL/6 mice were abraded with three parallel, superficial scratches; from tissue; host or cells: cornea of living C57BL/6 mice
T4 sequence (Q9QUN7 25-784): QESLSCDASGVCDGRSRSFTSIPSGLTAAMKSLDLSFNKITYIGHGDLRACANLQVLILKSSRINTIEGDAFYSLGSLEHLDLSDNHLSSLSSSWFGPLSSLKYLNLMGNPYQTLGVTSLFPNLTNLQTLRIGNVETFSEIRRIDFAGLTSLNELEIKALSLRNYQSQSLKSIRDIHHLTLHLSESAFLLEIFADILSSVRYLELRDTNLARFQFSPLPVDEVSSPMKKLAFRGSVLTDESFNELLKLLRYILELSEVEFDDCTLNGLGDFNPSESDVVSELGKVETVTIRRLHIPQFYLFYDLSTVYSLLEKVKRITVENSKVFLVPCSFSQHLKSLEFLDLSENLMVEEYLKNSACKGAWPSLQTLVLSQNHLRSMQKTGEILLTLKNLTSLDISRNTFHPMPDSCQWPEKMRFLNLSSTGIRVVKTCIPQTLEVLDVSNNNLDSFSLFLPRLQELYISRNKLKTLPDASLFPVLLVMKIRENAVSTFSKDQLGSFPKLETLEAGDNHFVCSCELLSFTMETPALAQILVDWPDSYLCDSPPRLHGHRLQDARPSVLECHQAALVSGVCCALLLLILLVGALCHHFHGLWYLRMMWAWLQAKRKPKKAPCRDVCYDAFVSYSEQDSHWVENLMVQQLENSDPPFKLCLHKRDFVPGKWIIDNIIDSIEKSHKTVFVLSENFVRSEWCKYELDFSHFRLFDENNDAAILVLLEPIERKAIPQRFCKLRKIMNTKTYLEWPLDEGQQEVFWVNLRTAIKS

TLR4 [4] = biological target: T5, TLR4 (Mus musculus, UniProt Q9JHF9+Q9QUK6); set-up: species or system C57BL/6 mice; conditions: in vivo
T5 construct: Corneas of C57BL/6 mice were abraded with three parallel, superficial scratches; from tissue; host or cells: cornea of living C57BL/6 mice
T5 sequence (Q9QUK6 26-835): T2 sequence (Q9QUK6 26-835)
T5 sequence (Q9JHF9 19-160): T2 sequence (Q9JHF9 19-160)
Method: (§5) C57BL/6 mice (6-8 weeks old) were obtained from The Jackson Laboratory (Bar Harbor, Me.). Mice were anesthetized by intraperitoneal injection of 0.4 ml 2,2,2-tribromoethanol (TBE). A 26 gauge needle was used to make three parallel abrasions in the corneal epithelium as described in our previous studies. Eritoran tetrasodium or placebo at concentrations indicated for each experiment was added topically, and a 2 mm diameter punch from a normal contact lens (LOTRAFILCON A; CIBA VISION) was added to the corneal surface (See FIG. 1). After an additional 1 h, the lens was briefly removed, and 2 μl LPS (20 mg/ml) or Pam3Cys (5 mg/ml) was placed on the corneal surface. The contact lens button was then replaced, and after an additional 1 h, the lens was removed and the mice were allowed to recover from anesthesia. In some experiments, the order of agonist and antagonist was reversed, or both were given simultaneously.
Briefly, Corneas of C57BL/6 mice were abraded with three parallel, superficial scratches. 2 μl of 350 mg/ml Eritoran or placebo was added topically, and a 2 mm diameter punch from a soft contact lens was placed on the corneal surface as shown in FIG. 1. […] After 1 h, the lens was removed, and 3 h later (4 h after stimulation), and corneas were dissected, homogenized, and CXCL1/KC was measured by ELISA.

TLR4 [5] = biological target: T3, TLR4; assay: LPS-induced IL-8 production by macrophages (U937); assay type: cell-based; set-up: endogenous in cells; conditions: for LPS-induced IL-8 production: U937 macrophages, 10 ng/ml LPS, 3 h
Method: as §1, §2, §3

TLR4 [6] = biological target: T3, TLR4; assay: LPS-induced IL-8 production by neutrophils (HL-60); assay type: cell-based; set-up: endogenous in cells; host or cells: HL-60 (five days in 1.2% DMSO); conditions: for LPS-induced IL-8 production: HL-60 neutrophils, 1 ng/ml LPS, 3 h
Method: as §1, §2, §3

TLR4 [7] = biological target: T5, TLR4; set-up: species or system C57BL/6 mice; conditions: in vivo; remark: listed apart in the source
TLR2 [8] = biological target: T1, TLR2; assay: Pam3Cys-induced IL-8 production by human corneal epithelial cells (HCE-T); assay type: cell-based; conditions: 500 ng/ml Pam3Cys, 24 h
Method: as §4, §2
Cell lines derived from human corneal epithelial cells (HCE-T), macrophages (U937) and neutrophils (HL-60) were stimulated with LPS or Pam3Cys in the presence of eritoran tetrasodium or placebo. After 3 h (U937 and HL-60 cells) or 24 h (HCE-T cell), IL-8 levels in culture supernatants were quantified by ELISA. […] FIGS. 16 and 17 show macrophages stimulated with 10 ng/ml LPS or 500 ng/ml Pam3Cys in the presence of Eritoran or placebo. FIGS. 18 and 19 show neutrophils stimulated with 1 ng/ml LPS or 500 ng/ml Pam3Cys and Eritoran or placebo. […]

TLR2 [9] = biological target: T1, TLR2; assay: Pam3Cys-induced IL-8 production by macrophages (U937); assay type: cell-based; conditions: 500 ng/ml Pam3Cys, 3 h
Method: as §1, §2, §3

corneal epithelium = test system: corneal epithelium
Method: The cell viability in vitro was measured by trypan blue. The corneal sections were incubated with terminal deoxynucleotidyl transferase-mediated dUTP nick end labeling (TUNEL) reagents according to manufacturer's directions (Roche, Penzberg, Germany), and the number of TUNEL positive cells in the cornea was quantified by fluorescence microscopy.
Mice were pre-treated with 2.2 μg eritoran tetrasodium prior to LPS, as described above, and eyes were snap frozen. We used a TUNEL assay on 5 μm corneal sections to identify apoptotic cells. Total cells were identified using DAPI.

TLR2 [10] = biological target: T4, TLR2; assay: Pam3Cys-induced CXCL1/KC production in the cornea, mouse contact lens model; assay type: in vivo, C57BL/6 mice; conditions: topical pre-treatment 1 h before Pam3Cys; ELISA 4 h after stimulation; vs placebo
Method: as §5
Briefly, Corneas of C57BL/6 mice were abraded with three parallel, superficial scratches. 2 μl of 350 mg/ml Eritoran or placebo was added topically, and a 2 mm diameter punch from a soft contact lens was placed on the corneal surface as shown in FIG. 1. […] After 1 h, the lens was removed, and 3 h later (4 h after stimulation), and corneas were dissected, homogenized, and CXCL1/KC was measured by ELISA. […]

Gram negative Lipid A = conditions: cited from earlier work
[11] = pretreatment with the highest concentration, Pam3Cys stimulation

With `CCCCCC/C=C\CCCCCCCCCC(=O)N[C@H]1[C@H](OC[C@H]2O[C@H](OP(=O)([O-])[O-])[C@H](NC(=O)CC(=O)CCCCCCCCCCC)[C@@H](OCCCCCCCCCC)[C@@H]2O)O[C@H](COC)[C@@H](OP(=O)([O-])[O-])[C@@H]1OCC[C@@H](CCCCCCC)OC.[Na+].[Na+].[Na+].[Na+]` [eritoran tetrasodium] the “Pam3Cys-induced IL-8 production” value (TLR2 [1]) was “no effect”, the corneal haze (TLR4/MD-2) was “significantly inhibited” and the corneal thickness (TLR4/MD-2) was “significantly inhibited”. For the same compound, the neutrophil infiltration (TLR4/MD-2) was “significantly inhibited”, the “LPS-induced IL-8 production” value (TLR4 [2]) was “significantly reduced” and the “LPS-induced IL-8 production” value (TLR4 [2]; listed as Eritoran) was “dose dependent inhibition”. The “dose required to inhibit LPS-induced IL-8, relative to macrophage and neutrophil lines” value (TLR4 [2]; human corneal epithelial cells with exogenous MD-2) was “required higher doses”, the neutrophil infiltration (TLR2 [3]; [11]) was “no effect” and the total reflectivity (TLR2 [3]; [11]) was “no effect”. The Pam3Cys/TLR2-induced corneal inflammation (TLR2 [3]; topical pre-treatment) was “no effect”, the “CXCL1/KC in LPS-stimulated corneas” value (TLR4 [4]) was “significantly inhibited” and the “LPS-induced IL-8 production” value (TLR4 [5]) was “significantly reduced”. For the same compound, the “LPS-induced IL-8 production” value (TLR4 [5]; listed as Eritoran) was “dose dependent inhibition”, the “concentration that inhibited LPS-induced IL-8” value (TLR4 [5]; macrophage cell line (U937)) was 1 ng/mL and the “LPS-induced IL-8 production” value (TLR4 [6]) was “significantly reduced”. The “LPS-induced IL-8 production” value (TLR4 [6]; listed as Eritoran) was “dose dependent inhibition”, the “concentration that inhibited LPS-induced IL-8” value (TLR4 [6]; neutrophil cell line (HL-60)) was 1 ng/mL and the LPS-induced corneal haze (TLR4 [7]) was “significantly reduced”. For the same compound, the LPS-induced neutrophil infiltration (TLR4 [7]) was “significantly inhibited; also recorded: significantly reduced”, the “cellular infiltrate in the central corneal stroma” value (TLR4 [7]) was “minimal cellular infiltrate” and the “concentration needed to reduce neutrophil numbers by 50%” value (TLR4 [7]) was 0.35 mg/mL. The “effect on neutrophil numbers at concentrations lower than 1.1 mg/ml” value (TLR4 [7]) was “no significant effect”, the minimum inhibitory concentration (TLR4 [7]) was 350 µg/mL and the “neutrophil numbers per corneal section” value (TLR4 [7]) was “dose-dependent reduction”. The “second application after 3 h versus single treatment” value (TLR4 [7]) was “no significant difference”, the “Pam3Cys-induced IL-8 production” value (TLR2 [8]) was “no effect” and the “Pam3Cys-induced IL-8 production” value (TLR2 [9]) was “no effect”. For the same compound, the “TUNEL positive cells in the corneal epithelium” value (corneal epithelium; 2.2 μg prior to LPS, presence or absence of LPS) was “no TUNEL positive cells”, the pro-apoptotic effect (corneal epithelium; 2.2 μg, corneal epithelium) was “no pro-apoptotic effect” and the “CXCL1/KC in Pam3Cys-stimulated corneas” value (TLR2 [10]) was “no difference”.
For Rhodobacter sphaeroides lipid A [RSLA], the “antagonistic activity for other Gram negative Lipid A” value (Gram negative Lipid A) is given as “pronounced antagonistic activity” and the agonist activity (Gram negative Lipid A; on some cell types) is given as “only minor agonist activity”.
